These are literature values, as cited in patent US6136845A (The Texas A&M University System, priority 1998, dated 2000).

For one data set, the system named is PR. The following applies: 21 to 25 day-old female Sprague-Dawley rat uterus; cited from earlier work.
The subject of another data set is CYP1A1. The following applies: result in words; cited from earlier work.
The next data set has as its system mammary tumor. As to conditions: rodent models; cited from earlier work.
In data set [1] the test system is 17β-estradiol (E2)-induced responses. The following applies: rats, mice; cited from earlier work.
For data set [2] the following is noted: in vivo; cited from earlier work.
The test system of data set [3] is MCF-7 human breast cancer cell lines. As to conditions: MCF-7 cells in culture; cited from earlier work.
For another data set, the system named is ER. The following applies: 21 to 25 day-old female Sprague-Dawley rat uterus; cited from earlier work.

`Clc1cc2c(cc1Cl)Oc1cc(Cl)c(Cl)cc1O2` [TCDD, 2,3,7,8-tetrachlorodibenzo-p-dioxin, reference compound]: the “nuclear and cytosolic progesterone receptor (PR) binding” value with PR was “dose-dependent decrease”. Also, the “induction of CYP1A1” value with CYP1A1 is “induces toxic and biochemical responses”. Further, in the data set on mammary tumor, the mammary tumor growth result is listed as “inhibit mammary tumor growth”. Further, the antiestrogenic activity entry in data set [1] and in data set [3] was “effective antiestrogen” throughout. In addition, the hepatocarcinogenicity result in data set [2] is “too hepatocarcinogenic”. The “nuclear and cytosolic ER binding” value with ER is given as “dose-dependent decrease”.
